Measured values taken from patent US20260116920A1, “HUMAN TRANSFERRIN RECEPTOR BINDING PEPTIDE” (PEPTIDREAM INC., priority 2021, published 2026).
Positions of bridges follow the written chain, without caps; N, C: chain ends. Non-standard residues stand in square brackets, D forms with d. Residues, ends and D or L forms follow the SMILES beside them. Trp(1-CH2COOH) = N[C@@H](Cc1cn(CC(=O)O)c2ccccc12)C(=O)O; NMePhe(3-Cl) = CN[C@@H](Cc1cccc(Cl)c1)C(=O)O; 3Pal(6-NH2) = Nc1ccc(C[C@H](N)C(=O)O)cn1; NMe3Pal = CN[C@@H](Cc1cccnc1)C(=O)O; NMeY = CN[C@@H](Cc1ccc(O)cc1)C(=O)O; 3Pal = N[C@@H](Cc1cccnc1)C(=O)O; 4Pal = N[C@@H](Cc1ccncc1)C(=O)O; PEG4 = NCCOCCOCCOCCOCCC(=O)O

The molecules below were run against T1, human transferrin receptor (hTfR) (Homo sapiens, UniProt P02786) (assay: Evaluation of molecular interaction between transferrin receptor (hTfR) and peptide using surface plasmon resonance (SPR)). Settings: surface plasmon resonance, binding to hTfR; KD class symbol; read-out: SPR (KD value).
T1 construct: made in house
T1 sequence (P02786 89-760 limits assumed): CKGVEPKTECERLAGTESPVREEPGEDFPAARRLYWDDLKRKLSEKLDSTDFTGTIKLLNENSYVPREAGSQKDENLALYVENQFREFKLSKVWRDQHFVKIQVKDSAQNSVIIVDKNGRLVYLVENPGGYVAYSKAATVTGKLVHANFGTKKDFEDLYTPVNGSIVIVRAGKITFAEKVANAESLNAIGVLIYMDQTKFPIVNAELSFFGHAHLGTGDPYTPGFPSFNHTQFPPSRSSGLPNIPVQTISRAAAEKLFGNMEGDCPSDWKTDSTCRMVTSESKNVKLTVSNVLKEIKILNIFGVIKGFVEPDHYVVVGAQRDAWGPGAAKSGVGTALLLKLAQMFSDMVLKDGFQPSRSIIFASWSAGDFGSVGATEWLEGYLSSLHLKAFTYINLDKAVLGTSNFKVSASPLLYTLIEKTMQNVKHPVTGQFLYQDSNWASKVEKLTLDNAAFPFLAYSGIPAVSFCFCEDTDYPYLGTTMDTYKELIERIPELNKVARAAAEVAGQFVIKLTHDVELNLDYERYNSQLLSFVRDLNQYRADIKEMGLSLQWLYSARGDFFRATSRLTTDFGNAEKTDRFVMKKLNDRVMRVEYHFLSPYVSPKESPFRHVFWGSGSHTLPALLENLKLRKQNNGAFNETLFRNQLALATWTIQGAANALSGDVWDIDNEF
Format: binding
Procedure, shortened: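 KD values are derived by least-squares fitting of single-cycle kinetic sensorgrams. Peptide series (5–100 nM) flows over recombinant hTfR dimer immobilized on a Ni-NTA chip by EDC/NHS coupling, in pH 8.0 HEPES buffer containing 0.1% BSA and 1.0% DMSO.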
Molecule `CC[C@H](C)[C@@H]1NC(=O)[C@H](Cc2cccnc2)NC(=O)[C@H](Cc2ccc(N)nc2)NC(=O)[C@H](CC(N)=O)NC(=O)[C@H](Cc2cn(CC(=O)O)c3ccccc23)NC(=O)[C@H](C(C)C)NC(=O)[C@H](Cc2cccc(Cl)c2)N(C)C(=O)[C@H](C(C)C)NC(=O)[C@H](C)NC(=O)CSC[C@@H](C(=O)NCCOCCOCCOCCOCCC(N)=O)NC(=O)[C@H](Cc2ccc(O)cc2)N(C)C(=O)[C@H](Cc2ccncc2)NC(=O)[C@H](CCCNC(=N)N)NC(=O)[C@H](CCCNC(=N)N)NC(=O)[C@H]([C@@H](C)CC)NC1=O` [compound 49] ({CH2CO}-AV[NMePhe(3-Cl)]V[Trp(1-CH2COOH)]N[3Pal(6-NH2)][3Pal]IIRR[4Pal][NMeY]C[PEG4]-NH2; thioether N-15) has a Kd of 1 to 100 nM. `CC[C@H](C)[C@@H]1NC(=O)[C@H](Cc2ccc(OC)cc2)NC(=O)[C@H](Cc2ccc(N)nc2)NC(=O)[C@H](CC(N)=O)NC(=O)[C@H](Cc2cn(CC(=O)O)c3ccccc23)NC(=O)[C@H](C(C)C)NC(=O)[C@H](Cc2cccc(Cl)c2)N(C)C(=O)[C@H](C(C)C)NC(=O)[C@H](C)NC(=O)CSC[C@@H](C(=O)NCCOCCOCCOCCOCCC(N)=O)NC(=O)[C@H](Cc2ccc(O)cc2)N(C)C(=O)[C@H](Cc2ccncc2)NC(=O)[C@H](CCCNC(=N)N)NC(=O)[C@H](CCCNC(=N)N)NC(=O)[C@H]([C@@H](C)CC)NC1=O` [compound 50] showed a Kd of 1 to 100 nM. `CC[C@H](C)[C@@H]1NC(=O)[C@H](Cc2cccnc2)NC(=O)[C@H](Cc2ccc(O)cc2)NC(=O)[C@H](CC(N)=O)NC(=O)[C@H](Cc2c[nH]c3ccccc23)NC(=O)[C@H](C(C)C)NC(=O)[C@H](Cc2cccc(Cl)c2)N(C)C(=O)[C@H](C(C)C)NC(=O)[C@H](C)NC(=O)CSC[C@@H](C(=O)NCCOCCOCCOCCOCCC(N)=O)NC(=O)[C@H](Cc2ccc(O)cc2)N(C)C(=O)[C@H](Cc2ccncc2)NC(=O)[C@H](CCCNC(=N)N)NC(=O)[C@H](CCCNC(=N)N)NC(=O)[C@H]([C@@H](C)CC)NC1=O` [compound 51] ({CH2CO}-AV[NMePhe(3-Cl)]VWNY[3Pal]IIRR[4Pal][NMeY]C[PEG4]-NH2; thioether N-15) was tested, and the Kd was 1 to 100 nM. In the case of `CC[C@H](C)[C@@H]1NC(=O)[C@H](Cc2cccnc2)NC(=O)[C@H](Cc2ccc(N)nc2)NC(=O)[C@H](CC(N)=O)NC(=O)[C@H](Cc2c[nH]c3ccccc23)NC(=O)[C@H](C(C)C)NC(=O)[C@H](Cc2cccc(Cl)c2)N(C)C(=O)[C@H](C(C)C)NC(=O)[C@H](C)NC(=O)CSC[C@@H](C(=O)NCCOCCOCCOCCOCCC(N)=O)NC(=O)[C@H](Cc2ccc(O)cc2)N(C)C(=O)[C@H](Cc2ccncc2)NC(=O)[C@H](CCCNC(=N)N)NC(=O)[C@H](CCCNC(=N)N)NC(=O)[C@H]([C@@H](C)CC)NC1=O` [compound 52] ({CH2CO}-AV[NMePhe(3-Cl)]VWN[3Pal(6-NH2)][3Pal]IIRR[4Pal][NMeY]C[PEG4]-NH2; thioether N-15), the Kd is reported as 1 to 100 nM. `CC[C@H](C)[C@@H]1NC(=O)[C@H](Cc2ccc(OC)cc2)NC(=O)[C@H](Cc2ccc(N)nc2)NC(=O)[C@H](CC(N)=O)NC(=O)[C@H](Cc2c[nH]c3ccccc23)NC(=O)[C@H](C(C)C)NC(=O)[C@H](Cc2cccc(Cl)c2)N(C)C(=O)[C@H](C(C)C)NC(=O)[C@H](C)NC(=O)CSC[C@@H](C(=O)NCCOCCOCCOCCOCCC(N)=O)NC(=O)[C@H](Cc2ccc(O)cc2)N(C)C(=O)[C@H](Cc2ccncc2)NC(=O)[C@H](CCCNC(=N)N)NC(=O)[C@H](CCCNC(=N)N)NC(=O)[C@H]([C@@H](C)CC)NC1=O` [compound 53] showed a Kd of 1 to 100 nM. `CC[C@H](C)[C@@H]1NC(=O)[C@H](Cc2ccncc2)NC(=O)[C@H](Cc2ccc(O)cc2)NC(=O)[C@H](CC(N)=O)NC(=O)[C@H](Cc2c[nH]c3ccccc23)NC(=O)[C@H](C(C)C)NC(=O)[C@H](Cc2cccc(Cl)c2)N(C)C(=O)[C@H](C(C)C)NC(=O)[C@H](C)NC(=O)CSC[C@@H](C(=O)NCCOCCOCCOCCOCCC(N)=O)NC(=O)[C@H](Cc2ccc(O)cc2)N(C)C(=O)[C@H](Cc2ccncc2)NC(=O)[C@H](CCCNC(=N)N)NC(=O)[C@H](CCCNC(=N)N)NC(=O)[C@H]([C@@H](C)CC)NC1=O` [compound 54] ({CH2CO}-AV[NMePhe(3-Cl)]VWNY[4Pal]IIRR[4Pal][NMeY]C[PEG4]-NH2; thioether N-15) showed a Kd of 1 to 100 nM. `CC[C@H](C)[C@@H]1NC(=O)[C@H](Cc2ccc(OC)cc2)NC(=O)[C@H](Cc2ccc(O)cc2)NC(=O)[C@H](CC(N)=O)NC(=O)[C@H](Cc2c[nH]c3ccccc23)NC(=O)[C@H](C(C)C)NC(=O)[C@H](Cc2cccnc2)N(C)C(=O)[C@H](C(C)C)NC(=O)[C@H](C)NC(=O)CSC[C@@H](C(=O)NCCOCCOCCOCCOCCC(N)=O)NC(=O)[C@H](Cc2ccc(O)cc2)N(C)C(=O)[C@H](Cc2ccccc2)NC(=O)[C@H](CCCNC(=N)N)NC(=O)[C@H](CCCNC(=N)N)NC(=O)[C@H]([C@@H](C)CC)NC1=O` [compound 55] was tested, and the Kd was 1 to 100 nM. Molecule `CC[C@H](C)[C@@H]1NC(=O)[C@H](Cc2ccc(OC)cc2)NC(=O)[C@H](Cc2ccc(O)cc2)NC(=O)[C@H](CC(N)=O)NC(=O)[C@H](Cc2c[nH]c3ccccc23)NC(=O)[C@H](C(C)C)NC(=O)[C@H](Cc2ccncc2)N(C)C(=O)[C@H](C(C)C)NC(=O)[C@H](C)NC(=O)CSC[C@@H](C(=O)NCCOCCOCCOCCOCCC(N)=O)NC(=O)[C@H](Cc2ccc(O)cc2)N(C)C(=O)[C@H](Cc2ccccc2)NC(=O)[C@H](CCCNC(=N)N)NC(=O)[C@H](CCCNC(=N)N)NC(=O)[C@H]([C@@H](C)CC)NC1=O` [compound 56] has a Kd of 1 to 100 nM. Work on `CC[C@H](C)[C@@H]1NC(=O)[C@H](Cc2ccc(OC)cc2)NC(=O)[C@H](Cc2ccc(N)nc2)NC(=O)[C@H](CC(N)=O)NC(=O)[C@H](Cc2c[nH]c3ccccc23)NC(=O)[C@H](C(C)C)NC(=O)[C@H](Cc2cccc(Cl)c2)N(C)C(=O)[C@H](C(C)C)NC(=O)[C@H](C)NC(=O)CSC[C@@H](C(=O)NCCOCCOCCOCCOCCC(N)=O)NC(=O)[C@H](Cc2ccc(O)cc2)N(C)C(=O)[C@H](Cc2ccccc2)NC(=O)[C@H](CCCNC(=N)N)NC(=O)[C@H](CCCNC(=N)N)NC(=O)[C@H]([C@@H](C)CC)NC1=O` [compound 57] ({CH2CO}-AV[NMePhe(3-Cl)]VWN[3Pal(6-NH2)]Y(Me)IIRRF[NMeY]C[PEG4]-NH2; thioether N-15) yielded a Kd of 1 to 100 nM. In the case of `CC[C@H](C)[C@@H]1NC(=O)[C@H](Cc2ccc(OC)cc2)NC(=O)[C@H](Cc2ccc(O)cc2)NC(=O)[C@H](CC(N)=O)NC(=O)[C@H](Cc2c[nH]c3ccccc23)NC(=O)[C@H](C(C)C)NC(=O)[C@H](Cc2cccnc2)N(C)C(=O)[C@H](C(C)C)NC(=O)[C@H](C)NC(=O)CSC[C@@H](C(=O)NCCOCCOCCOCCOCCC(N)=O)NC(=O)[C@H](Cc2ccc(O)cc2)N(C)C(=O)[C@H](Cc2ccncc2)NC(=O)[C@H](CCCNC(=N)N)NC(=O)[C@H](CCCNC(=N)N)NC(=O)[C@H]([C@@H](C)CC)NC1=O` [compound 58] ({CH2CO}-AV[NMe3Pal]VWNYY(Me)IIRR[4Pal][NMeY]C[PEG4]-NH2; thioether N-15), the Kd is reported as 1 to 100 nM. `CC[C@H](C)[C@@H]1NC(=O)[C@H](Cc2ccc(OC)cc2)NC(=O)[C@H](Cc2ccc(O)cc2)NC(=O)[C@H](CC(N)=O)NC(=O)[C@H](Cc2c[nH]c3ccccc23)NC(=O)[C@H](C(C)C)NC(=O)[C@H](Cc2cccc(Cl)c2)N(C)C(=O)[C@H](C(C)C)NC(=O)[C@H](C)NC(=O)CSC[C@@H](C(=O)NCCOCCOCCOCCOCCC(N)=O)NC(=O)[C@H](Cc2ccc(O)cc2)N(C)C(=O)[C@H](Cc2ccncc2)NC(=O)[C@H](CCCNC(=N)N)NC(=O)[C@H](CCCNC(=N)N)NC(=O)[C@H]([C@@H](C)CC)NC1=O` [compound 59] was tested, and the Kd was under 1 nM.
